PMC8742467, “Therapeutical interference with the epigenetic landscape of germ cell tumors: a comparative drug study and new mechanistical insights” (Clinical Epigenetics, 2022)

Legend:
[1] = system: transcriptome of 2102EP cells; assay: RNA sequencing; type: cell-based, Human; conditions: 16 h
Summary of the method: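 Transcriptome of 2102EP cells sequenced; differential expression between two groups tested with p values FDR-corrected for multiple testing. Solvent-control values averaged across three datasets (GSE189472, GSE190792, GSE190022).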

[2] = system: histone modifications in 2102EP cells; assay: Mass spectrometry analysis of histone modifications (Mod Spec); type: cell-based, Human
Summary of the method: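 2102EP cells were treated for 16 h with EC50 concentrations of Quisinostat, JIB-04, Chaetocin, MZ-1, LP99, PRT4165 or GSK343, with DMSO as solvent control. After trypsin harvest, histones were extracted and analysed by mass spectrometry. Raw data were converted to z-scores.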

[3] = sorted data log2>±1.5, FDR p<0.05
[4] = 2102EP cells, Mod Spec raw data
[5] = 2102EP, EC50, 16 h, vs solvent control

O=C1C(=Cc2cccnc2)C(=O)c2ccccc21 [PRT4165]
BST2 Log2 fold change vs. DMSO [1, 3]: -2.05
EIF3CL Log2 fold change vs. DMSO [1, 3]: -2.52
MMP1 Log2 fold change vs. DMSO [1, 3]: 6.18
MMP10 Log2 fold change vs. DMSO [1, 3]: 6.89
PPFIA4 Log2 fold change vs. DMSO [1, 3]: -2.26
SPANXA1 Log2 fold change vs. DMSO [1, 3]: 5.74
A1BG Log2 fold change vs. DMSO ([1]; unsorted data): -0.25
A1CF Log2 fold change vs. DMSO ([1]; unsorted data): 0.91
A2M Log2 fold change vs. DMSO ([1]; unsorted data): 1.71
H1.4: K25AC, % of peptide pool [2, 4]: 0.05173%
H1.4: K25ME1, % of peptide pool [2, 4]: 2.298%
H1.4: K25ME2, % of peptide pool [2, 4]: 0.1042%
H1.4: K25ME3, % of peptide pool [2, 4]: 0.02395%
H1.4: K25UN, % of peptide pool [2, 4]: 97.522%
H2A1: K13AC, % of peptide pool [2, 4]: 0.008344%
H2A1: K13UN, % of peptide pool [2, 4]: 99.9917%
H2A1: K15AC, % of peptide pool [2, 4]: 0.002728%
H2A1: K15UB, % of peptide pool [2, 4]: 0%
H2A1: K15UN, % of peptide pool [2, 4]: 99.9973%
H2A3: K13AC, % of peptide pool [2, 4]: 0.03698%
H2A3: K13UN, % of peptide pool [2, 4]: 99.963%
H2A3: K15AC, % of peptide pool [2, 4]: 0.08285%
H2A3: K15UB, % of peptide pool [2, 4]: 0%
H2A3: K15UN, % of peptide pool [2, 4]: 99.9171%
H2A: K5AC, % of peptide pool [2, 4]: 15.4182%
H2A: K5UN, % of peptide pool [2, 4]: 84.5818%
H2A: K9AC, % of peptide pool [2, 4]: 1.95%
H2A: K9UN, % of peptide pool [2, 4]: 98.0496%
H2A: K36AC, % of peptide pool [2, 4]: 0.05592%
H2A: K36UN, % of peptide pool [2, 4]: 99.9441%
H3: K9AC, % of peptide pool [2, 4]: 0.7791%
H3: K9ME1, % of peptide pool [2, 4]: 33.7783%
H3: K9ME2, % of peptide pool [2, 4]: 30.8531%
H3: K9ME3, % of peptide pool [2, 4]: 3.071%
H3: K9UN, % of peptide pool [2, 4]: 31.5183%
H3: K14AC, % of peptide pool [2, 4]: 32.0961%
H3: K14UN, % of peptide pool [2, 4]: 67.9039%
H3: K18AC, % of peptide pool [2, 4]: 12.9985%
H3: K18ME1, % of peptide pool [2, 4]: 0.1614%
H3: K18UN, % of peptide pool [2, 4]: 86.8401%
H3: K23AC, % of peptide pool [2, 4]: 19.4498%
H3: K23ME1, % of peptide pool [2, 4]: 0.05975%
H3: K23UN, % of peptide pool [2, 4]: 80.4904%
H3: K56AC, % of peptide pool [2, 4]: 0.4117%
H3: K56ME1, % of peptide pool [2, 4]: 1.0746%
H3: K56UN, % of peptide pool [2, 4]: 98.5137%
H3: K64AC, % of peptide pool [2, 4]: 0.02258%
H3: K64UN, % of peptide pool [2, 4]: 99.9774%
H3: K79AC, % of peptide pool [2, 4]: 3.311%
H3: K79ME1, % of peptide pool [2, 4]: 23.508%
H3: K79ME2, % of peptide pool [2, 4]: 7.992%
H3: K79ME3, % of peptide pool [2, 4]: 11.4561%
H3: K79UN, % of peptide pool [2, 4]: 53.7325%
H3: K122AC, % of peptide pool [2, 4]: 0.1739%
H3: K122UN, % of peptide pool [2, 4]: 99.8261%
H3: Q19ME1, % of peptide pool [2, 4]: 0.01555%
H3: Q19UN, % of peptide pool [2, 4]: 99.9844%
H3: Q55ME1, % of peptide pool [2, 4]: 0.5287%
H3: Q55UN, % of peptide pool [2, 4]: 99.4713%
H3: R42ME2, % of peptide pool [2, 4]: 2.978%
H3: R42UN, % of peptide pool [2, 4]: 97.0223%
H3: R49ME2, % of peptide pool [2, 4]: 9.973%
H3: R49UN, % of peptide pool [2, 4]: 90.0271%
H3R2UN: K4AC, % of peptide pool [2, 4]: 0.1986%
H3R2UN: K4ME1, % of peptide pool [2, 4]: 18.1935%
H3R2UN: K4ME2, % of peptide pool [2, 4]: 0.2356%
H3R2UN: K4ME3, % of peptide pool [2, 4]: 0.09008%
H3R2UN: K4UN, % of peptide pool [2, 4]: 81.2822%
H3R2UN: Q5ME1, % of peptide pool [2, 4]: 0.1103%
H3R2UN: Q5UN, % of peptide pool [2, 4]: 99.8897%
H3.1: K27AC, % of peptide pool [2, 4]: 2.4319%
H3.1: K27ME1, % of peptide pool [2, 4]: 48.1679%
H3.1: K27ME2, % of peptide pool [2, 4]: 21.916%
H3.1: K27ME3, % of peptide pool [2, 4]: 3.429%
H3.1: K27UN, % of peptide pool [2, 4]: 24.0551%
H3.1: K36AC, % of peptide pool [2, 4]: 0.4356%
H3.1: K36ME1, % of peptide pool [2, 4]: 14.9062%
H3.1: K36ME2, % of peptide pool [2, 4]: 45.0841%
H3.1: K36ME3, % of peptide pool [2, 4]: 22.3724%
H3.1: K36UN, % of peptide pool [2, 4]: 17.2016%
H3.3: K27AC, % of peptide pool [2, 4]: 6.482%
H3.3: K27M, % of peptide pool [2, 4]: 0%
H3.3: K27ME1, % of peptide pool [2, 4]: 46.8114%
H3.3: K27ME2, % of peptide pool [2, 4]: 16.0905%
H3.3: K27ME3, % of peptide pool [2, 4]: 6.139%
H3.3: K27UN, % of peptide pool [2, 4]: 24.4778%
H3.3: K36AC, % of peptide pool [2, 4]: 3.39%
H3.3: K36ME1, % of peptide pool [2, 4]: 13.3786%
H3.3: K36ME2, % of peptide pool [2, 4]: 45.5834%
H3.3: K36ME3, % of peptide pool [2, 4]: 23.7392%
H3.3: K36UN, % of peptide pool [2, 4]: 13.9089%
H4: K5AC, % of peptide pool [2, 4]: 8.039%
H4: K5UN, % of peptide pool [2, 4]: 91.9614%
H4: K8AC, % of peptide pool [2, 4]: 12.3075%
H4: K8UN, % of peptide pool [2, 4]: 87.6925%
H4: K12AC, % of peptide pool ([2]; 2102EP cells, Mod Spec raw data, histone H4 K12 acetylated): 6.955 % of peptide pool
H4: K12UN, % of peptide pool ([2]; 2102EP cells, Mod Spec raw data, histone H4 K12 unmodified): 93.045 % of peptide pool
H4: K16AC, % of peptide pool ([2]; 2102EP cells, Mod Spec raw data, histone H4 K16 acetylated): 45.5782 % of peptide pool
H4: K16UN, % of peptide pool ([2]; 2102EP cells, Mod Spec raw data, histone H4 K16 unmodified): 54.4218 % of peptide pool
H4: K20AC, % of peptide pool ([2]; 2102EP cells, Mod Spec raw data, histone H4 K20 acetylated): 32.1833 % of peptide pool
H4: K20ME2, % of peptide pool ([2]; 2102EP cells, Mod Spec raw data, histone H4 K20 dimethylated): 44.5336 % of peptide pool
H4: K20ME1, % of peptide pool ([2]; 2102EP cells, Mod Spec raw data, histone H4 K20 monomethylated): 4.33 % of peptide pool
H4: K20ME3, % of peptide pool ([2]; 2102EP cells, Mod Spec raw data, histone H4 K20 trimethylated): 2.102 % of peptide pool
H4: K20UN, % of peptide pool ([2]; 2102EP cells, Mod Spec raw data, histone H4 K20 unmodified): 16.8517 % of peptide pool
change of histone modifications of the expected mode of action (Mod Spec) [2, 5]: decreased ubiquitination (ub) of the target histone H2AK119 [50] could not be detected
off-target changes of histone modifications (Mod Spec) [2, 5]: increase of H3K36me3, H4K20ac, H3K79me1/ac
